These results are taken from patent publication US6576266B1, “Plant extract based on glycerides, a method for the preparation of this extract and a cosmetic composition containing the same” (Sodic SA, priority 1999, dated 2003).

Assay [1] deals with reduction of cytochrome c (xanthin oxidase). Nature of the assay: Radical scavenging: slowing-down of the reduction of cytochrome c (Fridovitch and McCord). The format is biochemical. The note with it: 0.6315 mg/ml, phosphate buffer pH 7.8, 25° C. The source says: The experimental method is based on the procedure developed in 1973 by Fridovitch and McCord for SOD (J. Biol. Chem. 248, 2648).
The determination of the radical scavenging properties is based on the measurement of the inhibition or of the slowing-down of the reduction of cyto-chrome c by the product investigated, by comparison with the effect exerted by xanthin oxidase. The formation of reduced cytochrome c is monitored by spectrophotometry at 550 nm.
In these tests, a plant extract powder of the invention is used at a concentration of 1.5 mg/ml in a phosphate buffer pH 7.8 at 25° C.
Furthermore, an additional test was carried out with Dgdg alone, in the same conditions as above, but using the Fluka 36975 product having a purity of 95%.

Assay [2] deals with T1, elastase of human leukocytes (EHL) (Homo sapiens, UniProt P08246).
T1 sequence (P08246 30-267): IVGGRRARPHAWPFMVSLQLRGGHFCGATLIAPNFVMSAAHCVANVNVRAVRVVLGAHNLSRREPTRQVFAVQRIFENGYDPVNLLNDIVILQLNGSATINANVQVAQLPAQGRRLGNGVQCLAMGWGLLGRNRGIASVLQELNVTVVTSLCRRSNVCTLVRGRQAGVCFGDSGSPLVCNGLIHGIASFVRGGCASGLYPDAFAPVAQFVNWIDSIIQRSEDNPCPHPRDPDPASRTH
The assay is described as follows: Inhibitory action against elastase (synthetic substrate, spectrophotometry at 405 nm). The format is biochemical. Here is the method: It was of interest to investigate the inhibitory action against elastase by the powder extract of the invention and to compare it with that of ceramide 3 alone.
The inhibitory action of the powder extract of the invention against EHL was examined in an aqueous solution of a Tris-HCl buffer, using N-methoxysuccinyl-alanyl-alanyl-prolyl-valyl-para-nitroanilide as a synthetic substrate.
The kinetics of the reaction were determined by spectrophotometry at 405 nm, enabling the measurement of the release of para-nitroanilide, which is a coloured product. The percent inhibitory action of the preparation against the elastase was determined by comparison with a reference curve (hydrolysis of the substrate in the absence of an inhibitor).

Regarding “2,3-di-O-(fatty acid acyl)-1-O-[6′-O-α-D-galactopyranosyl-β-galactopyranosyl]-D-glycerine [Dgdg]”, the “Slowing-down of the reduction of cytochrome c” value in assay [1] worked out at 36.1%. The “Inhibitory activity against elastase (in words)” value in assay [2] is reported as “practically no inhibitory activity”.
